Tests used:
[1] = test system: 3-phosphoinositide dependent protein kinase 1 (Pdpk1); test: TMT proteomic detection of pancreatic tissues, HFD+VA vs HFD+PBS; assay type: in vivo, mice; settings: TMT proteomics
Experimental: (§1) During the subsequent test, in order to observe pathological morphologies of animal tissues, paraffin sections of mouse tissues were made and subjected to HE staining, immunohistochemical staining and immunofluorescence staining. Also, mouse pancreatic tail tissues in a valeric acid intervention group and a control group were taken out from the −80° C. refrigerator and underwent TMT labeled quantitative proteome detection of the animal tissues, and differential proteins were subjected to a Western Blot test and a real-time fluorescence quantitative polymerase chain reaction (QRT PCR) test for the animal tissues to verify test results.
Through functional annotation of GO and KEGG databases, metabolic pathways such as energy and glycolipid metabolism, glycogen synthesis, redox and phosphorylation are enriched (FIG. 19).

[2] = Serum tumor markers CEA and CA19-9 by ECLIA in high-fat fed mice; assay type: in vivo
Description: Finally, to detect whether tumor invasion was caused during intervention or not, contents of a carbohydrate antigen (CA 19-9) and a carcinoembryonic antigen (CEA) in mouse serum were detected and compared by using automatic electrochemiluminescence immunoassay system Cobas® 8000 (Roche, USA) and electrochemiluminescence immunoassay (ECLIA).

[3] = test system: mouse pancreatic tissues (islet β cells); test: Histopathology of pancreas of high-fat fed mice (HE, ERK immunohistochemistry, immunofluorescence); assay type: in vivo
Experimental: In order to detect a blood glucose homeostasis level and an insulin function of each mouse, an oral glucose tolerance test (OGTT) for the mice was performed. At the night before this test, test mice were fasted but not water for 16 h and transferred from a feeding room to a clean experimental operation room, so that the animals could adapt to the environment. Before the OGTT started, a weight of each mouse was accurately weighed, and an injection dose of glucose was calculated according to 2 mg/g body weight, and a tail was cut for collecting blood at 0 minute, 15 minutes, 30 minutes, 60 minutes and 120 minutes after intragastric injection of the glucose. A first drop of blood after tail cutting was discarded, and then concentrations of blood glucose (mmol/L) were continuously detected using an Accu-Chek blood glucose meter (Roche diagnosis, USA). The test mice were fasted for 12 h at the night before sampling, and were anesthetized by intraperitoneal injection of a 10% chloral hydrate-containing solution. After the intraperitoneal cavities of the mice were cut, blood was collected by apical blood collection, and the test mice were killed. After being collected, blood samples were left for still standing for 2 h at the room temperature, and then centrifuged for 15 min at […], serum at the upper layer was sucked, and then biochemical detection was performed immediately. After the blood samples were collected, pancreatic tissues of the mice were immediately cut off so as to prevent pancreatic dissolution, and heads and tails of pancreas were separately stored. Then other tissues of the mice were extracted. Pictures of tissue morphologies of various parts of the mice were photographed and stored, and weights of tissues were weighed and precisely recorded. Subsequently, the extracted tissues were divided into two parts, one of the two parts was sub-packed into an EP tube, immediately rapidly frozen in liquid nitrogen and then transferred to a −80° C. refrigerator for cryopreservation; and the other part was sub-packed into an EP tube containing 4% paraformaldehyde to be fixed for making pathological tissue sections later.
as §1

[4] = test system: PI3k/Pdpk1/Akt insulin metabolic pathway; test: WB and ELISA of key proteins of PI3k/Pdpk1/Akt insulin metabolic pathway in mouse pancreatic tissues; assay type: in vivo, mice; settings: p value <0.05
Experimental: as §1

expression level of Pdpk1 in the mouse pancreatic tissues [1]: significantly increased
CA19-9 in mouse serum ([2]; HF+VA mouse serum): < 0.600 U/mL
CEA in mouse serum ([2]; HF+VA mouse serum): < 0.200 U/mL
cancer invasion ([2]; from CEA and CA19-9 serum markers): does not occur
SMILES: CCCCC(=O)O [valeric acid]
proportion of ERK positive areas ([3]; ERK staining of paraffin sections): increased significantly
islet areas ([3]; HE staining, HF-V group): obviously enlarged
number of islets ([3]; HE staining, HF-V group): increased
number of β cells in the islet ([3]; HE staining, HF-V group): significantly increased
number of Ki67 stained nuclei in the pancreas ([3]; insulin/Ki67/DAPI immunofluorescence): increased significantly
secretion proportion of the insulin in the pancreas ([3]; insulin/glucagon/DAPI immunofluorescence): increased significantly
expression level of Akt [4]: significantly increased
expression level of PIPS [4]: significantly increased
expression level of Pdpk1 [4]: significantly increased
expression level of mTOR [4]: significantly increased
expression level of p-Akt [4]: significantly increased
expression level of p-mTOR [4]: significantly increased

Source: patent publication US20240024262A1, “USE OF VALERIC ACID IN PREPARATION OF DRUG FOR PREVENTING AND TREATING DIABETES” (Harbin Medical University, priority 2022, published 2024)
